The target of the assay is T1, dopamine transporter (DAT) (Homo sapiens, UniProt Q01959).
T1 construct: gene SLC6A3; human recombinant, CHO cells
Put plainly: Cerep DAT affinity assay, human recombinant CHO cells (called radioligand in the Discussion, functional in Methods). The format is binding.

Molecules are shown by their SMILES. Where a name gives a salt, the structure may show the parent alone.

T1 sequence (Q01959 whole entry): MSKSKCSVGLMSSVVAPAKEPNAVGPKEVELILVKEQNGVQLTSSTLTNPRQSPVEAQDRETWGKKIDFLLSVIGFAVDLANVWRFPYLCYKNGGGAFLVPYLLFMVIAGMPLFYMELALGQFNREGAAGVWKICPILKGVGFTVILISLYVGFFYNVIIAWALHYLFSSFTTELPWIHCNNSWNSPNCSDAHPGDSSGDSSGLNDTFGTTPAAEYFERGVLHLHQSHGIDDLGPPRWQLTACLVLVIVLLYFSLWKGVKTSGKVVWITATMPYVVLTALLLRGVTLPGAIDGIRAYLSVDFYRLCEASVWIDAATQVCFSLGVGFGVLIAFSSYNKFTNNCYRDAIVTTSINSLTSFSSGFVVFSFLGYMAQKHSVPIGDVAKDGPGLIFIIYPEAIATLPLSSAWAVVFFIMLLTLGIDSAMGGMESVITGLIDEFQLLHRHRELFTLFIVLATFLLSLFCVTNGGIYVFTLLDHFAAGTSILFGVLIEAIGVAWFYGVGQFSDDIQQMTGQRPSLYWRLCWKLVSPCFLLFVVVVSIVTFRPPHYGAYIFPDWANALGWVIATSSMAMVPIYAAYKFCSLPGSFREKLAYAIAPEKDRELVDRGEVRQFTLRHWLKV

Usually Ki stands for the equilibrium dissociation constant of an inhibitor or competing ligand from its target. Consider `Cc1[nH]c2ccc(Cl)cc2c1C1=CCNCC1` [EMD 386088, 5-chloro-2-methyl-3-(1,2,3,6-tetrahydro-4-pyridinyl)-1H-indole hydrochloride], for which the inhibitory constant (Ki) was found to be 41 nM.
